Data on 28 molecules can be found in patent US8822430B2 (Gilead Sciences, Inc., priority 2009, dated 2014).

In the assay the test system is HCV 1b RLuc cells (dicistronic genotype 1b Con1 replicon). In words: Renilla luciferase (RLuc)-based HCV replicon reporter assay. The class given is cell-based, HCV genotype 1b. Particulars: Hepatitis C virus, 72 h, HCV 1b RLuc replicon, 72 hours; read-out: Activity (antiviral potency [EC50]). In outline:
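HCV 1b RLuc cells carrying a dicistronic genotype 1b Con1 replicon were treated with serially diluted compounds from 10 mM DMSO stocks. After 72 h, cells were lysed and Renilla luciferase activity measured. EC50 was obtained by non-linear regression.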
A general note: A replicon is a self-replicating genome or part of one, used to study replication in cells.
The term EC50 denotes the concentration at which the effect is half-maximal. In the case of `COC(=O)N[C@H](C(=O)N1CCC[C@H]1c1ncc(-c2ccc(-c3ccc4nc([C@@H]5CCCN5C(=O)[C@@H](NC(=O)OC)C(C)C)[nH]c4c3)cc2)[nH]1)C(C)C`, the EC50 was 0.0372 nM.

As for `COC(=O)N[C@H](C(=O)N1CCC[C@H]1C(=O)Nc1ccc(-c2ccc(-c3cnc([C@@H]4CCCN4C(=O)[C@@H](NC(=O)OC)C(C)C)[nH]3)cc2)cc1)C(C)C`, the EC50 turned out to be 0.124 nM.

As for `COC(=O)N[C@@H](C)C(=O)N1[C@@H]2CC[C@@H](C2)[C@H]1c1ncc(-c2ccc3c(c2)CCc2cc(-c4cnc([C@@H]5CCCN5C(=O)[C@@H](NC(=O)OC)C(C)C)[nH]4)ccc2-3)[nH]1`, the EC50 worked out at 0.0126 nM.

On to `COC(=O)N[C@H](C(=O)N1CCC[C@H]1c1ncc(-c2ccc3cc(-c4ccc5cc(-c6cnc([C@@H]7[C@H]8CC[C@H](C8)N7C(=O)[C@@H](NC(=O)OC)C(C)C)[nH]6)ccc5c4)ccc3c2)[nH]1)C(C)C`, for which the EC50 worked out at 0.28 nM.

Take `COC(=O)N[C@@H](C)C(=O)N1[C@@H]2CC[C@@H](C2)[C@H]1c1ncc(-c2ccc3cc(-c4ccc5cc(-c6cnc([C@@H]7CCCN7C(=O)[C@@H](NC(=O)OC)C(C)C)[nH]6)ccc5c4)ccc3c2)[nH]1`: the EC50 stood at 1.17 nM.

Consider `COC(=O)N[C@@H](C)C(=O)N1CCC[C@H]1c1ncc(-c2ccc3c(c2)sc2cc(-c4cnc([C@@H]5[C@H]6CC[C@H](C6)N5C(=O)[C@H](C)NC(=O)OC)[nH]4)ccc23)[nH]1`, for which the EC50 is 0.0185 nM.

In the case of `COC(=O)N[C@@H](C)C(=O)N1CCC[C@H]1c1ncc(-c2ccc3cc(-c4ccc5cc(-c6cnc([C@@H]7[C@H]8CC[C@H](C8)N7C(=O)[C@@H](NC(=O)OC)C(C)C)[nH]6)ccc5c4)ccc3c2)[nH]1`, the EC50 came to 1.15 nM.

As to `COC(=O)N[C@@H](CC#N)C(=O)N1[C@@H]2CC[C@@H](C2)[C@H]1c1ncc(-c2ccc3cc(-c4ccc(-c5cnc([C@@H]6CCCN6C(=O)[C@@H](NC(=O)OC)C(C)C)[nH]5)cc4)ccc3c2)[nH]1`, the half-maximal effective concentration (EC50) was 0.013 nM.

For `COC(=O)N[C@H](C(=O)N1CCC[C@H]1c1ncc(-c2ccc(-c3ccc4cc(-c5cnc([C@@H]6[C@H]7CC[C@H](C7)N6C(=O)[C@@H](NC(=O)OC)C(C)C)[nH]5)ccc4c3)cc2)[nH]1)C(C)C`, the EC50 is 0.011 nM.

For `COC(=O)N[C@@H](C)C(=O)N1CCC[C@H]1c1ncc(-c2ccc(-c3ccc4cc(-c5cnc([C@@H]6[C@H]7CC[C@H](C7)N6C(=O)[C@@H](NC(=O)OC)C(C)C)[nH]5)ccc4c3)cc2)[nH]1`, the EC50 was determined as 0.034 nM.

Turning to `COC(=O)N[C@H](C(=O)N1CCC[C@H]1c1ncc(-c2ccc(C#Cc3ccc(-c4cnc([C@@H]5[C@H]6CC[C@H](C6)N5C(=O)[C@@H](NC(=O)OC)C(C)C)[nH]4)cc3)cc2)[nH]1)C(C)C`, the EC50 turned out to be 0.073 nM.

For the molecule `COC(=O)N[C@H](C(=O)N1CCC[C@H]1c1ncc(-c2ccc3cc(-c4ccc(-c5cnc([C@@H]6[C@H]7CC[C@H](C7)N6C(=O)[C@@H](NC(=O)OC)C(C)C)[nH]5)cc4)ccc3c2)[nH]1)C(C)C`, the EC50 is 0.006 nM.

On to `COC(=O)N[C@H](C(=O)N1CCC[C@H]1c1ncc(-c2ccc3cc(-c4ccc(-c5ccc6nc([C@@H]7[C@H]8CC[C@H](C8)N7C(=O)[C@@H](NC(=O)OC)C(C)C)[nH]c6c5)cc4)ccc3c2)[nH]1)C(C)C`, for which the EC50 turned out to be 0.077 nM.

Regarding `COC(=O)N[C@@H](C)C(=O)N1CCC[C@H]1c1ncc(-c2ccc3c(c2)sc2cc(-c4ccc5nc([C@@H]6[C@H]7CC[C@H](C7)N6C(=O)[C@H](C)NC(=O)OC)[nH]c5c4)ccc23)[nH]1`, the EC50 amounted to 0.075 nM.

Take `CCC(=O)N[C@H](C(=O)N1CC2(CC2)C[C@H]1c1ncc(-c2ccc(-c3ccc(-c4cnc([C@@H]5CCCN5C(=O)[C@@H](NC(=O)OC)C(C)C)[nH]4)cc3)cc2)[nH]1)C(C)C`: the half-maximal effective concentration (EC50) was determined as 0.013 nM.

For the molecule `COC(=O)N[C@H](C(=O)N1C[C@@H](C#N)C[C@H]1c1ncc(-c2ccc(C#Cc3ccc(-c4cnc([C@@H]5CC(F)(F)CN5C(=O)[C@@H](NC(=O)OC)C(C)C)[nH]4)cc3)cc2)[nH]1)C(C)C`, the half-maximal effective concentration (EC50) was found to be 0.018 nM.

Regarding `COC(=O)N[C@H](C(=O)N1CCC[C@H]1c1nc2ccc(-c3cc4cc5sc(-c6ccc7nc([C@@H]8CCCN8C(=O)[C@@H](NC(=O)OC)C(C)C)[nH]c7c6)cc5cc4s3)cc2[nH]1)C(C)C`, the EC50 was 0.014 nM.

Take `COC(=O)N[C@H](C(=O)N1C[C@@H](C#N)C[C@H]1c1ncc(-c2ccc(C#Cc3ccc(-c4cnc([C@@H]5CC6(CC6)CN5C(=O)[C@@H](NC(=O)OC)C(C)C)[nH]4)cc3)cc2)[nH]1)C(C)C`: the EC50 is 0.0149 nM.

As to `COC(=O)N[C@H](C(=O)N1CC2(CC2)C[C@H]1c1ncc(-c2ccc(-c3ccc(-c4ccc5nc([C@@H]6[C@H]7CC[C@H](C7)N6C(=O)[C@@H](NC(=O)OC)C(C)C)[nH]c5c4)cc3)cc2)[nH]1)C(C)C`, the EC50 was determined as 0.0058 nM.

In the case of `COC(=O)N[C@H](C(=O)N1C[C@@H](C#N)C[C@H]1c1ncc(-c2ccc(-c3ccc4cc(-c5cnc([C@@H]6CC7(CC7)CN6C(=O)[C@@H](NC(=O)OC)C(C)C)[nH]5)ccc4c3)cc2)[nH]1)C(C)C`, the EC50 was determined as 0.0069 nM.

Consider `COC(=O)N[C@H](C(=O)N1C[C@@H](C#N)C[C@H]1c1ncc(-c2ccc3c(c2)C(F)(F)c2cc(-c4ccc5nc([C@@H]6[C@H]7CC[C@H](C7)N6C(=O)[C@@H](NC(=O)OC)C(C)C)[nH]c5c4)ccc2-3)[nH]1)C(C)C`, for which the EC50 was 0.0059 nM.

Take `COC(=O)N[C@@H](C)C(=O)N1[C@@H]2CC[C@@H](C2)[C@H]1c1nc2ccc(-c3ccc4c(c3)C(F)(F)c3cc(-c5cnc([C@@H]6CC7(CC7)CN6C(=O)[C@@H](NC(=O)OC)C(C)C)[nH]5)ccc3-4)cc2[nH]1`: the EC50 amounted to 0.0036 nM.

Consider `COC(=O)N[C@H](C(=O)N1CC2(CC2)C[C@H]1c1ncc(-c2ccc3c(c2)C(F)(F)c2cc(-c4ccc5nc([C@@H]6[C@H]7CC[C@H](C7)N6C(=O)[C@@H](NC(=O)OC)C(C)C)[nH]c5c4)ccc2-3)[nH]1)C(C)C`, for which the 50% effective concentration (EC50) was found to be 0.0045 nM.

In the case of `COC(=O)N[C@H](C(=O)N1CC2(CC2)C[C@H]1c1ncc(-c2ccc3cc(-c4ccc(-c5cnc([C@@H]6[C@H]7CC[C@H](C7)N6C(=O)[C@@H](NC(=O)OC)C(C)C)[nH]5)cc4)ccc3c2)[nH]1)C(C)C`, the EC50 is 0.0067 nM.

Consider `COC(=O)N[C@@H](CCS(C)(=O)=O)C(=O)N1[C@@H]2CC[C@@H](C2)[C@H]1c1nc2ccc(-c3ccc4c(c3)C(F)(F)c3cc(-c5cnc([C@@H]6CC7(CC7)CN6C(=O)[C@@H](NC(=O)OC)C(C)C)[nH]5)ccc3-4)cc2[nH]1`, for which the EC50 is 0.0218 nM.

`COC(=O)N[C@H](C(=O)N1C[C@@H](C#N)C[C@H]1c1ncc(-c2ccc3c(c2)C(F)(F)c2cc(-c4ccc5nc([C@@H]6CC7(CC7)CN6C(=O)[C@@H](NC(=O)OC)C(C)C)[nH]c5c4)ccc2-3)[nH]1)C(C)C`: the EC50 was 0.0064 nM.

Take `COC(=O)N[C@@H](CCC#N)C(=O)N1[C@@H]2CC[C@@H](C2)[C@H]1c1nc2ccc(-c3ccc4c(c3)C(F)(F)c3cc(-c5cnc([C@@H]6CC7(CC7)CN6C(=O)[C@@H](NC(=O)OC)C(C)C)[nH]5)ccc3-4)cc2[nH]1`: the EC50 was 0.006 nM.

For the molecule `COC(=O)N[C@@H](CCS(C)(=O)=O)C(=O)N1C[C@@H](C#N)C[C@H]1c1ncc(-c2ccc(-c3ccc4cc(-c5cnc([C@@H]6CC7(CC7)CN6C(=O)[C@@H](NC(=O)OC)C(C)C)[nH]5)ccc4c3)cc2)[nH]1`, the EC50 was found to be 0.256 nM.
